Laboratory results taken from patent US9914722B2, “Compounds for treating spinal muscular atrophy” (PTC Therapeutics Inc., priority 2012, dated 2018).
Entries after “also recorded” stand apart in the source; their conditions may differ.

Experiments:
[1] = tested on: full length SMN2 minigene mRNA containing SMN2 exon 7 (SMN2-A minigene); assay: SMN2 minigene mRNA splicing RT-qPCR assay in cultured cells; assay type: cell-based, human; conditions: for SMN2 minigene FL mRNA relative to vehicle / SMN2 minigene alternative splicing / exon 7 inclusion: HEK293H cells with SMN2-A minigene, 24 hr, RT-qPCR, FIG. 3; for EC (1.5-fold): Homo sapiens, HEK293-H, HEK293H cells stably transfected with SMN2-A minigene, 24 hours, 7-point concentration curve, concentration giving 1.5-fold SMN2 full length mRNA vs vehicle, read-out: EC1.5x for production of full length SMN2 mRNA
Outline: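 HEK293H cells stably carrying the SMN2-A minigene were treated 24 h at 37 °C with a 7-point, 3.16-fold test compound series, in duplicate. Multiplex RT-qPCR measured exon 7-containing minigene FL mRNA, normalized to GAPDH and expressed relative to vehicle; EC1.5x is the concentration giving 1.5-fold FL mRNA.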

[2] = tested on: gems (Smn-dependent nuclear speckles) in SMA patient fibroblast cells; assay: Gems count (Smn-dependent nuclear speckle count) assay; assay type: cell-based, human; conditions: Type 1 SMA patient fibroblasts, 48 hour, fluorescence microscopy, relative to DMSO, FIG. 7
Source text: Gems Count (Smn-Dependent Nuclear Speckle Count) Assay
The level of Smn protein directly correlates with the amount of nuclear foci, also known as gems, produced upon staining the cell with a fluorescently labeled anti-Smn antibody (Liu and Dreyfuss, EMBO J., 1996, 15:3555). Gems are multi-protein complexes whose formation is nucleated by the Smn protein and the gems count assay is used to evaluate the level of Smn protein in the cell. As described herein, the gems count assay is used to quantify the level of Smn protein in SMA patient fibroblast cells treated with a test compound.
Protocol: Cells are thawed and incubated in DMEM-10% FBS for 72 hours, then trypsinized, counted and resuspended to 100,000 cells/mL in DMEM-10% FBS. The cell suspension (2 mL) is plated in a 6-well cell culture plate with a sterile cover slip and incubated for 3 to 5 hours. Test compounds are serially diluted 3.16-fold in 100% DMSO to generate a 7-point dilution curve. […]
Cell culture medium is aspirated from the wells containing cover slips and gently washed three times with cold PBS. […] The number of gems is counted per ≧150 nuclei and % activation is calculated using DMSO and 10 nM bortezomib as controls. For each test compound, the cells are examined at all wavelengths to identify test compounds with inherent fluorescence.

Structure (SMILES) | SMN2 minigene FL mRNA relative to vehicle [1] | SMN2 minigene alternative splicing / exon 7 inclusion [1] | EC (1.5-fold) [1] | nuclear speckle counts (gems) [2]
COc1ccc(-c2cc(=O)c3cc(N4CCN[C@@H](C)C4)ccc3o2)cc1F [Cpd 38, 2-(3-fluoro-4-methoxyphenyl)-6-[(3S)-3-methylpiperazin-1-yl]-4H-chromen-4-one] | increased SMN2 minigene FL mRNA at low concentrations | correction of SMN2 minigene alternative splicing | ≤ 0.1 µM | progressively more gems relative to cells treated with DMSO; also recorded: increase in nuclear speckle counts (gems)
C[C@@H]1CN(c2ccc3oc(-c4cn5ccccc5n4)cc(=O)c3c2)C[C@H](C)N1 [Cpd 17, 6-[(3R,5S)-3,5-dimethylpiperazin-1-yl]-2-(imidazo[1,2-a]pyridin-2-yl)-4H-chromen-4-one] | increased SMN2 minigene FL mRNA at low concentrations | correction of SMN2 minigene alternative splicing | 1 to 3 µM | –
